Data as given in patent US20250312352A1, “GLP-1R MODULATING COMPOUNDS” (Gilead Sciences, Inc., priority 2021, published 2025).

Molecular target: T1, GLP-1R (Homo sapiens, UniProt P43220)
T1 construct: host or cells: CHO cells
Experiment: GLP-1R activation cAMP assay (Assay 1 or Assay 2)
Format: cell-based
Details: cAMP increase in CHO cells stably expressing GLP-1R; compounds run on one of the two cAMP assays
Outline: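 EC50 values come from a sigmoidal fit of HTRF-detected cAMP rise versus log agonist concentration. GLP-1R-expressing CHO cells, equilibrated 1 h at 37 °C in HBSS with HEPES and BSA, received a 10-point compound dose series for 30 min before detection.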

T1 sequence (P43220 24-463): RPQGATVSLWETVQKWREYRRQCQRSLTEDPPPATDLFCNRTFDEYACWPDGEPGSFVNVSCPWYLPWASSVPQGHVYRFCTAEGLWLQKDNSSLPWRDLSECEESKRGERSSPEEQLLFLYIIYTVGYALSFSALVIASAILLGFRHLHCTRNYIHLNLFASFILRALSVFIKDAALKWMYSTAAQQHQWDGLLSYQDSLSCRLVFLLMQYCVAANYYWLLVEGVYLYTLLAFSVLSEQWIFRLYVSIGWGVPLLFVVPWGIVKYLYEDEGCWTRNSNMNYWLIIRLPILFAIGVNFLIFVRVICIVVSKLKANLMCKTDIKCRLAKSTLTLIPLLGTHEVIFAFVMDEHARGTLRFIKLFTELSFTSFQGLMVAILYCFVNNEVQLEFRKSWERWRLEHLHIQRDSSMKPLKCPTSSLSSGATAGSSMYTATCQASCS

Row | SMILES | EC50 [nM]
1 | O=C(O)c1ccc2nc(Cc3cc(F)c(-c4cccc(OCc5nnc(OC6CC(C(F)F)C6)s5)n4)cc3F)n(C[C@@H]3CCO3)c2c1 (stereo partly drawn) [Example 347, (S)-2-(4-(6-((5-(3-(difluoromethyl)cyclobutoxy)-1,3,4-thiadiazol-2-yl)methoxy)pyridin-2-yl)-2,5-difluorobenzyl)-1-(oxetan-2-ylmethyl)-1H-benzo[d]imidazole-6-carboxylic acid] | 0.271
2 | O=C(O)c1ccc2nc(Cc3cc(F)c(-c4cccc(OCc5nc6cc(Cl)ccc6s5)n4)cc3F)n(C[C@@H]3CCO3)c2c1 [Example 35, (S)-2-(4-(6-((5-chlorobenzo[d]thiazol-2-yl)methoxy)pyridin-2-yl)-2,5-difluorobenzyl)-1-(oxetan-2-ylmethyl)-1H-benzo[d]imidazole-6-carboxylic acid] | 0.22
3 | NC(=O)c1cc(F)c(COc2cccc(-c3cc(F)c(Cc4nc5ccc(C(=O)O)cc5n4C[C@@H]4CCO4)cc3F)n2)cc1F [Example 172, (S)-2-(4-(6-((4-carbamoyl-2,5-difluorobenzyl)oxy)pyridin-2-yl)-2,5-difluorobenzyl)-1-(oxetan-2-ylmethyl)-1H-benzo[d]imidazole-6-carboxylic acid] | 2.57
4 | O=C(O)c1ccc2nc(Cc3cc(F)c(-c4cccc(OCc5ncc(-c6ccc(C(F)(F)F)cc6)s5)n4)cc3F)n(C[C@H]3CCO3)c2c1 [Example 382, (R)-2-(2,5-difluoro-4-(6-((5-(4-(trifluoromethyl)phenyl)thiazol-2-yl)methoxy)pyridin-2-yl)benzyl)-1-(oxetan-2-ylmethyl)-1H-benzo[d]imidazole-6-carboxylic acid] | 1.27
5 | COCCn1c(Cc2cc(F)c(-c3cccc(OCc4ccc(C(N)=O)nc4)n3)cc2F)nc2ccc(C(=O)O)cc21 [Example 174, 2-(4-(6-((6-carbamoylpyridin-3-yl)methoxy)pyridin-2-yl)-2,5-difluorobenzyl)-1-(2-methoxyethyl)-1H-benzo[d]imidazole-6-carboxylic acid] | 40.6
6 | NC(=O)c1cc(COc2cccc(-c3cc(F)c(Cc4nc5ccc(C(=O)O)cc5n4C[C@@H]4CCO4)cc3F)n2)cs1 [Example 129, (S)-2-(4-(6-((5-carbamoylthiophen-3-yl)methoxy)pyridin-2-yl)-2,5-difluorobenzyl)-1-(oxetan-2-ylmethyl)-1H-benzo[d]imidazole-6-carboxylic acid] | 3.17
7 | O=C(O)c1cc(F)c2nc(Cc3cc(F)c(-c4ccnc(OCc5ncc(C(F)(F)F)s5)n4)cc3F)n(C[C@@H]3CCO3)c2c1 [Example 408, (S)-2-(2,5-difluoro-4-(2-((5-(trifluoromethyl)thiazol-2-yl)methoxy)pyrimidin-4-yl)benzyl)-4-fluoro-1-(oxetan-2-ylmethyl)-1H-benzo[d]imidazole-6-carboxylic acid] | 0.381
8 | O=C(O)c1ccc2nc(Cc3cc(F)c(-c4cccc(OCc5nc6cccnc6s5)n4)cc3F)n(C[C@@H]3CCO3)c2c1 [Example 26, (S)-2-(2,5-difluoro-4-(6-(thiazolo[5,4-b]pyridin-2-ylmethoxy)pyridin-2-yl)benzyl)-1-(oxetan-2-ylmethyl)-1H-benzo[d]imidazole-6-carboxylic acid] | 0.23
9 | NC(=O)c1ccc(COc2nccc(-c3cc(F)c(Cc4nc5ccc(C(=O)O)cc5n4C[C@@H]4CCO4)cc3F)n2)cn1 [Example 222, (S)-2-(4-(2-((6-carbamoylpyridin-3-yl)methoxy)pyrimidin-4-yl)-2,5-difluorobenzyl)-1-(oxetan-2-ylmethyl)-1H-benzo[d]imidazole-6-carboxylic acid] | 3.59
10 | CC1(C#Cc2ccc(COc3cccc(-c4cc(F)c(Cc5nc6ccc(C(=O)O)cc6n5C[C@@H]5CCO5)cc4F)n3)c(F)c2)COC1 [Example 133, (S)-2-(2,5-difluoro-4-(6-((2-fluoro-4-((3-methyloxetan-3-yl)ethynyl)benzyl)oxy)pyridin-2-yl)benzyl)-1-(oxetan-2-ylmethyl)-1H-benzo[d]imidazole-6-carboxylic acid] | 0.3
11 | Cn1cc(-c2cnc(COc3cccc(-c4cc(F)c(Cc5nc6ccc(C(=O)O)cc6n5[C@H]5COCC5(C)C)cc4F)n3)s2)cn1 [Example 97, (R)-2-(2,5-difluoro-4-(6-((5-(1-methyl-1H-pyrazol-4-yl)thiazol-2-yl)methoxy)pyridin-2-yl)benzyl)-1-(4,4-dimethyltetrahydrofuran-3-yl)-1H-benzo[d]imidazole-6-carboxylic acid] | 0.11

Other lines, results leading:

Row | EC50 [nM] | SMILES
12 | 0.039 | COc1nnc(COc2cccc(-c3cc(F)c(Cc4nc5ccc(C(=O)O)cc5n4[C@@H]4COCC4(C)C)cc3F)n2)s1 [Example 342, (S)-2-(2,5-difluoro-4-(6-((5-methoxy-1,3,4-thiadiazol-2-yl)methoxy)pyridin-2-yl)benzyl)-1-(4,4-dimethyltetrahydrofuran-3-yl)-1H-benzo[d]imidazole-6-carboxylic acid]
13 | 0.134 | CCOc1nnc(COc2nc(-c3cc(F)c(Cc4nc5ccc(C(=O)O)cc5n4[C@@H]4COCC4(C)C)cc3C)ccc2F)s1 [Example 262, (S)-1-(4,4-dimethyltetrahydrofuran-3-yl)-2-(4-(6-((5-ethoxy-1,3,4-thiadiazol-2-yl)methoxy)-5-fluoropyridin-2-yl)-2-fluoro-5-methylbenzyl)-1H-benzo[d]imidazole-6-carboxylic acid]
14 | 0.6 | O=C(O)c1ccc2nc(Cc3cc(F)c(-c4cccc(OCc5nccs5)n4)cc3F)n(C[C@@H]3CCO3)c2c1 [Example 11, (S)-2-(2,5-difluoro-4-(6-(thiazol-2-ylmethoxy)pyridin-2-yl)benzyl)-1-(oxetan-2-ylmethyl)-1H-benzo[d]imidazole-6-carboxylic acid]
15 | 0.311 | COc1nnc(COc2cccc(-c3cc(F)c(Cc4nc5ccc(C(=O)O)cc5n4C4COCC4(C)C)c(F)c3F)n2)s1 (stereo not shown) [Example 282, 1-(4,4-dimethyltetrahydrofuran-3-yl)-2-(2,3,6-trifluoro-4-(6-((5-methoxy-1,3,4-thiadiazol-2-yl)methoxy)pyridin-2-yl)benzyl)-1H-benzo[d]imidazole-6-carboxylic acid]
16 | 0.89 | O=C(O)c1ccc2nc(Cc3cc(F)c(-c4cccc(OCc5ncc(C6CC6)o5)n4)cc3F)n(C[C@@H]3CCO3)c2c1 [Example 63, (S)-2-(4-(6-((5-cyclopropyloxazol-2-yl)methoxy)pyridin-2-yl)-2,5-difluorobenzyl)-1-(oxetan-2-ylmethyl)-1H-benzo[d]imidazole-6-carboxylic acid]
17 | 0.381 | Cc1cnc(COc2cccc(-c3cc(F)c(Cc4nc5ccc(C(=O)O)cc5n4C[C@@H]4CCO4)cc3F)n2)s1 [Example 327, (S)-2-(2,5-difluoro-4-(6-((5-methylthiazol-2-yl)methoxy)pyridin-2-yl)benzyl)-1-(oxetan-2-ylmethyl)-1H-benzo[d]imidazole-6-carboxylic acid]
18 | 0.185 | O=C(O)c1ccc2nc(Cc3cc(F)c(-c4cccc(OCc5ccc(C#Cc6cnn(C(F)F)c6)cc5F)n4)cc3F)n(C[C@@H]3CCO3)c2c1 [Example 287, (S)-2-(4-(6-((4-((1-(difluoromethyl)-1H-pyrazol-4-yl)ethynyl)-2-fluorobenzyl)oxy)pyridin-2-yl)-2,5-difluorobenzyl)-1-(oxetan-2-ylmethyl)-1H-benzo[d]imidazole-6-carboxylic acid]
19 | 3.68 | COCCn1c(Cc2cc(F)c(-c3cccc(OCc4ccc(-c5cnn(Cc6cccnc6)c5)cc4F)n3)cc2F)nc2ccc(C(=O)O)cc21 [Example 237, 2-[[2,5-difluoro-4-[6-[[2-fluoro-4-[1-(3-pyridylmethyl)pyrazol-4-yl]phenyl]methoxy]-2-pyridyl]phenyl]methyl]-3-(2-methoxyethyl)benzimidazole-5-carboxylic acid]
20 | 0.044 | COc1nnc(COc2cccc(-c3cc(F)c(Cc4nc5ccc(C(=O)O)cc5n4[C@@H]4COCC4(C)C)cc3C)n2)s1 [Example 261, (S)-1-(4,4-dimethyltetrahydrofuran-3-yl)-2-(2-fluoro-4-(6-((5-methoxy-1,3,4-thiadiazol-2-yl)methoxy)pyridin-2-yl)-5-methylbenzyl)-1H-benzo[d]imidazole-6-carboxylic acid]
21 | 0.043 | COc1nnc(COc2nc(-c3cc(F)c(Cc4nc5ccc(C(=O)O)cc5n4[C@@H]4COCC4(C)C)cc3F)ccc2F)s1 [Example 339, (S)-2-(2,5-difluoro-4-(5-fluoro-6-((5-methoxy-1,3,4-thiadiazol-2-yl)methoxy)pyridin-2-yl)benzyl)-1-(4,4-dimethyltetrahydrofuran-3-yl)-1H-benzo[d]imidazole-6-carboxylic acid]
22 | 0.65 | O=C(O)c1ccc2nc(Cc3cc(F)c(-c4cccc(OCc5nnc(Cl)s5)n4)cc3F)n(C[C@@H]3CCO3)c2c1 [Example 49, (S)-2-(4-(6-((5-chloro-1,3,4-thiadiazol-2-yl)methoxy)pyridin-2-yl)-2,5-difluorobenzyl)-1-(oxetan-2-ylmethyl)-1H-benzo[d]imidazole-6-carboxylic acid]
23 | 0.621 | Cn1cc(C#Cc2ccc(COc3cccc(-c4cc(F)c(Cc5nc6ccc(C(=O)O)cc6n5C[C@@H]5CCO5)cc4F)n3)cc2)cn1 [Example 306, (S)-2-(2,5-difluoro-4-(6-((4-((1-methyl-1H-pyrazol-4-yl)ethynyl)benzyl)oxy)pyridin-2-yl)benzyl)-1-(oxetan-2-ylmethyl)-1H-benzo[d]imidazole-6-carboxylic acid]
24 | 0.366 | CC1(C)COC[C@H]1n1c(Cc2cc(F)c(-c3ccc(F)c(OCc4ncc(Cl)s4)n3)cc2F)nc2ccc(C(=O)O)cc21 [Example 255, (S)-2-(4-(6-((5-chlorothiazol-2-yl)methoxy)-5-fluoropyridin-2-yl)-2,5-difluorobenzyl)-1-(4,4-dimethyltetrahydrofuran-3-yl)-1H-benzo[d]imidazole-6-carboxylic acid]
25 | 0.188 | CCOc1nc(Cl)c(COc2cccc(-c3cc(F)c(Cc4nc5ccc(C(=O)O)cc5n4C[C@@H]4CCO4)cc3F)n2)s1 [Example 353, (S)-2-(4-(6-((4-chloro-2-ethoxythiazol-5-yl)methoxy)pyridin-2-yl)-2,5-difluorobenzyl)-1-(oxetan-2-ylmethyl)-1H-benzo[d]imidazole-6-carboxylic acid]
